Here are results for four molecules from patent US20060040885A1, “Bioprosthetic heart valves” (Mayo Foundation for Medical Education and Research, a …, priority 1999, published 2006).

In one assay the test system is nitric oxide synthase. The assay is described as follows: Nitric oxide synthase activity in aortic valve endothelial cell lysates (3H-L-arginine to L-citrulline conversion). It counts as cell-based, pigs. Particulars: valvular cells treated with pravastatin. On the procedure: To assess nitric oxide synthase activity, the aortic valve endothelial cell lysates were evaluated using an NADPH disphorase reaction. Briefly, each lysate was incubated for 30 minutes in a NOS assay buffer containing ^3H-L-arginine, NADPH (100 mM), tetrahydrobiopterin (1 mM), calmodulin ([…]), and CaCl2 (25 mM). The reaction was quenched with ice cold stop buffer (2 mM EDTA, 20 mM Hepes, pH 5.5). The mixture was passed over a Dowex AG50WX-8 Na form resin and washed with one mL stop buffer. Nitric oxide synthase activity was calculated to be the amount of L-arginine converted to L-citrulline that was inhibited by 1-NAME. A scintillation counter was used to determine the amount of radioactivity.

The subject of the next assay is rabbit aortic valves. Kind of assay: 1% cholesterol diet in rabbits, aortic valve immunostaining (PCNA, osteopontin) and cholesterol levels. It counts as in vivo, New Zealand rabbits. Particulars: 1% cholesterol diet for 12 weeks. As for the experimental part:
In another experiment, osteopontin expression was evaluated. Osteopontin is a non-collagenous bone matrix protein found to be present in the hypercholesterolemic aortic valves. New Zealand rabbits (n=8) were fed with a 1% cholesterol diet for 12 weeks. Eight control animals were fed a normal chow diet. Aortic valves were cut and foam cells were identified by immunostaining for macrophage antibody. Cell proliferation was assessed by immunostaining for proliferating nuclear antigen (PCNA), and osteopontin (OP) for calcification. Transmission electron microscopy immunogold labeling confirmed osteopontin expression.

Assay [1] deals with cultured porcine aortic valve subendothelial cells. The assay is described as follows: 3H thymidine incorporation assay, serotonin-induced proliferation. The class given is cell-based. On the procedure:
To examine the direct proliferative effects of serotonin, cultured porcine aortic valve subendothelial cells were treated with 1 μM, 100 nM, and 10 nM of serotonin and then tested using a ^3H thymidine incorporation assay.
In general terms: Uptake of a labelled nucleoside into DNA is a usual measure of proliferation.

Take `CC[C@H](C)C(=O)O[C@H]1C[C@H](O)C=C2C=C[C@H](C)[C@H](CC[C@@H](O)C[C@@H](O)CC(=O)O)[C@H]21` [Pravastatin, pravastatin]: in the assay on nitric oxide synthase, the “nitric oxide synthase activity versus cells treated with serum-free media alone” value is “about 100 fold”.

`CC(C)CCC[C@@H](C)[C@H]1CC[C@H]2[C@@H]3CC=C4C[C@@H](O)CC[C@]4(C)[C@H]3CC[C@]12C` [cholesterol]: in the assay on rabbit aortic valves, the “number of proliferating cells (PCNA) in aortic valves compared to controls” value is “thousand-fold increase” and the “osteopontin expression in the atherosclerotic lesion of the aortic valves” value is recorded as “increased osteopontin expression”. For `CSc1ccc2c(c1)C(N1CCN(C)CC1)Cc1ccccc1S2` (centres unmarked) [methiothepin], in assay [1] (methiothepin 7 nM with serotonin), the “effect on serotonin-induced proliferation” value is “inhibited the serotonin-induced proliferation”.

Take `NCCc1c[nH]c2ccc(O)cc12` [serotonin]: the “increase in cell proliferation compared to untreated cells” value in assay [1] (serotonin 1 μM, 100 nM and 10 nM, p<0.001) is reported as 33 fold.
